Data published in patent US12138320B2, “Composition and methods for tumor imaging and treatment” (The University of Chicago, priority 2020, dated 2024).

How the values were obtained:
[1] = system: PC3 prostate cancer xenografts; experiment: PET/CT imaging and ex vivo biodistribution in mice bearing PC3 xenografts; design: species or system mouse; conditions: ex vivo quantitation, 3 hours after injection, prostate cancer model
Description: FIGS. 12A-12C: In vivo prostate cancer tumor images with fluorine-18-labeled 2-isopropylphenyl-(4-(2-fluorethoxy)phenethyl)carbamate ([^18F]JW199) tracer. FIG. 12A is a representative whole-body positron emission tomography-computed tomography (PET-CT) image of a PC3 prostate cancer cell tumor-bearing mouse and tumor boundary image in inset. Image is representative of n=4 mice. B. FIG. 12B is a graph showing the ex vivo biodistribution of [^18F]JW199 in mice bearing PC3 xenografts. Quantification of radiotracer signal in the indicated tissues 3 hours after injection of 150 microcurie (μCi) of radiotracer. Data are means percentage injected dose per cubic centimeter (% ID/cc)±standard deviation (SD) (n=4 male mice). FIG. 12C is a graph of the glyceraldehyde-3-phosphate dehydrogenase (GAPDH)-normalized neutral cholesterol ester hydrolase 1 (NCEH1) protein levels in the edge (red) and inside (blue) areas of tumor xenografts, ***p<0.001 as determined by Student's t-test. […]
In vivo microPET/CT imaging: All imaging was performed by the Integrated Small Animal Imaging Research Resource (iSAIRR) at the University of Chicago (Chicago, Illinois, United States of America) on a β-Cube and X-Cube (Molecubes NV, Ghent, Belgium). […] Respiration rate and body temperature of the animal were constantly monitored during the entire scanning period with the p-Cube and X-Cube onboard monitoring system. […]

[2] = Radiochemical stability by radioactive HPLC; type: physicochemical; conditions: physiologic buffers; PBS containing 10% ethanol, up to 120 min
Protocol: Stability analyses of HPLC-purified […]: Radiochemical stability testing of the synthesized [^18F]JW199, was performed with multiple HPLC injections using increasing amounts of activity to keep the peak heights roughly similar. 64 μCi was injected 83 minutes post synthesis, and this was considered the t=0 time point. The subsequent injection was 79 μCi at 30-minutes, followed by three more injections of 86, 106, and 117 μCi at 60, 90, and 120-minutes respectively.

CC(C)c1ccccc1OC(=O)NCCc1ccc(OCC[18F])cc1 [[^18F]JW199, fluorine-18-labeled 2-isopropylphenyl-(4-(2-fluoroethoxy)phenethyl)carbamate]
total radioactivity in bulk tumor tissue relative to surrounding muscle [1]: higher total radioactivity | chemical stability [2]: chemically stable
